{
  "source": "patent US8138191B2",
  "about": "“Inhibitor compounds and cancer treatment methods” (Critical Outcome Technologies Inc., priority 2007, dated 2012)",
  "key": {"P-glycoprotein": {"molecular_target": "T1, P-glycoprotein (Homo sapiens, UniProt P08183)", "T1 construct": "endogenous in cells; host or cells: TC7 cells", "T1 sequence (P08183 whole entry)": "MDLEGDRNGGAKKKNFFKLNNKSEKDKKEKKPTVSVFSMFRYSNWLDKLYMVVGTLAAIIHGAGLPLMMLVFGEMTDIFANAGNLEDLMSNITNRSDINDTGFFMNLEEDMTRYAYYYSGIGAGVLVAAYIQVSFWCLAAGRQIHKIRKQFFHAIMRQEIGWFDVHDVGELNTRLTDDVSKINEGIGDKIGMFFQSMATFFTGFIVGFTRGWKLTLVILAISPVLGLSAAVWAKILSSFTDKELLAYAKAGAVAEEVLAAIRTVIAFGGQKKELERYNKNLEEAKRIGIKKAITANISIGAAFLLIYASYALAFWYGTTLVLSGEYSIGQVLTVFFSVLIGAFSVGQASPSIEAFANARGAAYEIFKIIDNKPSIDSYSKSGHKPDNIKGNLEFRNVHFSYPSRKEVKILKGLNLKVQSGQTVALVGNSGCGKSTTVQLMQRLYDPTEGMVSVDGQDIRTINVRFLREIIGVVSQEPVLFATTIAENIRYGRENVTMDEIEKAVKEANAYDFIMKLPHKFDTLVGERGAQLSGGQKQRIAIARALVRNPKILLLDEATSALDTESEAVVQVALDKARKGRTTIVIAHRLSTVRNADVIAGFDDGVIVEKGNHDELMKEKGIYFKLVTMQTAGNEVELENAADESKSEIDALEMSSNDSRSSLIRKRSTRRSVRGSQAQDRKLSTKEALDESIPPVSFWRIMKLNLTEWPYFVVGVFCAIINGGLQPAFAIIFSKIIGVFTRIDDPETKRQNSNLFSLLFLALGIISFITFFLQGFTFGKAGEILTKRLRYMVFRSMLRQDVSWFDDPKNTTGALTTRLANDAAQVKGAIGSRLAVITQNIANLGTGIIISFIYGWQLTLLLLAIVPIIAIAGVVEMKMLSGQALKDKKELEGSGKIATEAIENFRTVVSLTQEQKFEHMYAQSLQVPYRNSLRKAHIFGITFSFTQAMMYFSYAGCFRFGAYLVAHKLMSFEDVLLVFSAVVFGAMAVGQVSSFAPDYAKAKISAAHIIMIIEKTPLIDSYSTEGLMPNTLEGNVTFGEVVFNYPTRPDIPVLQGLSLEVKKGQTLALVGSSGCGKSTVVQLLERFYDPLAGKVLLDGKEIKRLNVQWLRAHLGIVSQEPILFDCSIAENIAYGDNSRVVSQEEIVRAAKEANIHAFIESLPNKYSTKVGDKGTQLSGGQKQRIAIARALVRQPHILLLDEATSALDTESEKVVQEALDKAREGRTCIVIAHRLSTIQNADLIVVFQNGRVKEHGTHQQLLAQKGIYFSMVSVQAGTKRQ", "assay": "P-glycoprotein inhibition (TC7, 3H-digoxin substrate)", "type": "in vitro ADME"}, "[1]": {"system": "PI3K activity in SHP77 cells", "assay": "PI3-K activity (PIP3 detection, Echelon kit), SHP77", "type": "cell-based, human", "conditions": "SHP77, 250 nM COTI-2 alone, 20 minutes", "from_the_text": "As a negative control, an equivalent volume of DMSO was utilized. […] To measure PI3-K activity, a commercial kit was purchased from Echelon. Following the procedures recommended by the manufacturer, membrane lipids were extracted in several steps and the resulting PIP3 was immobilized to nitrocellulose and measured by its interaction with a PH-domain containing protein and HRP-conjugated antibody supplied with the kit. As an additional control in these experiments, the specific PI3-K inhibitor, LY294002 was used to inhibit PI3-K and thus stop PIP3 production."}, "CYP2C19": {"molecular_target": "CYP2C19 (Homo sapiens, UniProt P33261)", "sequence (P33261 whole entry)": "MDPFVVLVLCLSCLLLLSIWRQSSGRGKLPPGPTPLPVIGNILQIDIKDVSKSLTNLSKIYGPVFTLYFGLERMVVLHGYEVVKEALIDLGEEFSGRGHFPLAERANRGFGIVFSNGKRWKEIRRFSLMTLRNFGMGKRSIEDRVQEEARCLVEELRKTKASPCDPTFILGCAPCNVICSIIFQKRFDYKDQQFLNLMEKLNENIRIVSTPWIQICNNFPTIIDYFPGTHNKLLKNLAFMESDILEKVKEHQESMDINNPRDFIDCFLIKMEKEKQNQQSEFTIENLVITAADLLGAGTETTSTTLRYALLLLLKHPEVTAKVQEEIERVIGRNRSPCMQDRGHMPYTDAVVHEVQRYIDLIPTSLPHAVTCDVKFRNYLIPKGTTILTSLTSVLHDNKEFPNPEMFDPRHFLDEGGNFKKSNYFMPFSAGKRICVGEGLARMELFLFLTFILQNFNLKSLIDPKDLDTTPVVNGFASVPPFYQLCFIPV", "assay": "in vitro", "conditions": "both"}, "[2]": {"system": "HCT-116 human colon tumor xenograft", "assay": "HCT-116 human colon tumor xenograft model", "conditions": "for Deaths: N 10"}, "[3]": {"system": "AN3-CA human endometrial tumor xenograft", "conditions": "for Maximum weight loss (%) (Day #): Day 21; for CS (Complete Shrinkage) / Deaths: N 10; for Mean days of Survival (Day ± SEM): end point of 2000 mg", "procedure": "Female athymic nude mice (CrTac:NCR-Foxn1^nu) were supplied by Taconic (Germantown, N.Y.).\nThe dosing schedule for COTI-2 and the vehicle control was three times weekly until study end. […] When the mean tumor weight of each mouse reached an approximate end-point of 2000 mg, mice were sacrificed with regulated CO2.\nThe mean tumor shrinkage of each group was calculated and reported."}, "A549": {"system": "A549", "assay": "in vitro IC50 against cancer cell lines, A549", "type": "cell-based", "conditions": "Homo sapiens, 72 h; A549, NSCLC, 3 days"}, "[4]": {"system": "A549, H460, DMS114 and SHP77 cells", "assay": "Western blot of total mTOR, mTOR phospho-Ser2448/Ser2481 and Akt phospho-Thr308", "type": "cell-based, human", "conditions": "4 h"}, "[5]": {"system": "A2780 human ovarian tumor xenograft", "assay": "A2780 human ovarian tumor xenograft model", "conditions": "for Day 17 CS (Complete Tumor Shrinkage): N 10"}, "[6]": {"assay": "Metabolic Stability (liver microsomes, rat, Sprague-Dawley)", "type": "in vitro ADME", "conditions": "1.0E−06 M, 60 min", "procedure": "Metabolic stability was determined in human (mixed gender and pool of 50) monkey (male Cynomolgus, pool of 6 or more), dog male, beagle, pool of 4 or more) and rat (male Sprague-Dawley, pool of 100 or more) liver microsomes. […] Four reference substrates (1 μM) were tested simultaneously with COTI-2. […] Peak areas corresponding to COTI-2 were recorded by HPLC-MS/MS. Metabolic stability, expressed as percent of COTI-2 remaining, was calculated by comparing the peak area of COTI-2 at 60 min to time zero."}, "HL-60": {"system": "HL-60", "assay": "Flow cytometric analysis of cell death (Annexin V/PI), HL-60", "type": "cell-based, human", "conditions": "HL-60, 200 nM", "procedure": "All cell lines were grown and exposed to various concentrations of COTI-2 or vehicle only control and the percentage of dead or dying cells were determined 24 and 48 h post-exposure by Annexin V and propidium iodide.\nHL-60 (human promyelocytic leukemia) cells were grown as non-adherent cells in flasks in RPMI 1640 medium supplemented with 10% FBS. H226 (human non-small cell lung cancer) cells were grown in Eagle's MEM supplemented with 10% FBS. Both cell lines were obtained from the American Type Culture Collection (ATCC)(Rockville, Md.) and maintained at 37° C. in a humidified 5% CO2 atmosphere.\nCells were plated in 25-cm^2 flasks and treated with COTI-2 (0-100 μM) added from a stock DMSO/DMEM solution such that DMSO concentrations never exceeded 0.5%. Control cells were treated with stock DMSO/DMEM. […] Resuspended cells (100 μl) were incubated in the dark with 10 μl propidium iodide (PI, 50 ng per ml; Sigma, St. Louis, Mo.) plus Annexin V-FITC (25 ng per ml, green fluorescence; BD Biosciences, Mississauga, Ontario). […] Samples were analyzed for combined Annexin V/PI staining (to assess dead plus apoptotic cells) using a Beckman Coulter EPCS XL-MCL flow cytometer (Beckman Coulter, Hileah, Fla.) and the data were analyzed with CellQuest software."}, "SHP 77 cells": {"system": "SHP 77 cells", "assay": "Proliferation with anti-cancer agents plus COTI-2, SHP 77", "type": "cell-based, human"}, "CYP3A": {"molecular_target": "CYP3A (Homo sapiens, UniProt P08684)", "sequence (P08684 2-503)": "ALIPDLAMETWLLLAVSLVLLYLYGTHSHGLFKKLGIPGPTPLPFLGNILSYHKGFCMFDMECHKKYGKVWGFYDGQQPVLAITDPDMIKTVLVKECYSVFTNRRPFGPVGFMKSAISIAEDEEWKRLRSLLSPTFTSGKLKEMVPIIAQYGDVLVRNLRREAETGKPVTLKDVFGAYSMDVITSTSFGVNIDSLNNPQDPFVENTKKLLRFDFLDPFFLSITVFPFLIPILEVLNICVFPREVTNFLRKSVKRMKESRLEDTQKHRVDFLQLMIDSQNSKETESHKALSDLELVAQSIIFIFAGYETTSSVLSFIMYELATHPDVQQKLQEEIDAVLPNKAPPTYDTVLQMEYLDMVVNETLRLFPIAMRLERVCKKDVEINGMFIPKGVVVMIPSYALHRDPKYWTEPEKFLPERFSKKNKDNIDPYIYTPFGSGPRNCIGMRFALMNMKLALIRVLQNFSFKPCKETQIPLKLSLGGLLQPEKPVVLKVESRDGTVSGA", "assay": "in vitro", "conditions": "both"}, "[7]": {"conditions": "COTI-2 12.5 mg/kg IV 3X Weekly to end"}, "[8]": {"conditions": "COTI-2 50.0 mg/kg IV 3X Weekly to end"}},
  "note": "Like-named read-outs stand apart in the source and are kept apart here.",
  "data": [
    {"smiles": "S=C(N/N=C1/CCCc2cccnc21)N1CCN(c2ccccn2)CC1", "note": "[COTI-2]", "values": [
      {"measurement": "nH", "setting": "P-glycoprotein; P-glycoprotein Inhibition, TC7, 3H-digoxin substrate", "value": 0.5},
      {"measurement": "IC50", "setting": "P-glycoprotein; TC-7, radiolabelled digoxin, read-out: IC50, Pgp inhibition", "value": 39, "unit": "µM"},
      {"measurement": "PI3K activity (PIP3 levels)", "setting": "[1]", "value": "did not inhibit PI3K activity"},
      {"measurement": "inhibition at 15 min, 10 µM", "setting": "CYP2C19; human liver microsomes, pH 7.4, probe omeprazole (10 µM)", "value": 4, "unit": "%"},
      {"measurement": "inhibition at 15 min, 10 µM", "setting": "CYP2C19; liver microsomes, pH 7.4, probe omeprazole", "value": "< 50", "unit": "%"},
      {"measurement": "Day 15 Mean tumor weight", "setting": "[2]; COTI-2 12.5 mg/kg IV", "value": "1,471.3 ± 155.9 mg"},
      {"measurement": "Mean survival (Day ± SEM)", "setting": "[2]; COTI-2 12.5 mg/kg IV", "value": "12.8 ± 0.76", "unit": "days"},
      {"measurement": "Maximum weight loss (%) (Day #)", "setting": "[2]; COTI-2 12.5 mg/kg IV, Day 17", "value": 20.96, "unit": "%"},
      {"measurement": "Deaths", "setting": "[2]; COTI-2 12.5 mg/kg IV", "value": 1},
      {"measurement": "Day 15 Mean tumor weight", "setting": "[2]; COTI-2 50.0 mg/kg IV", "value": "1,353.4 ± 127.3 mg"},
      {"measurement": "Mean survival (Day ± SEM)", "setting": "[2]; COTI-2 50.0 mg/kg IV", "value": "12.6 ± 0.83", "unit": "days"},
      {"measurement": "Maximum weight loss (%) (Day #)", "setting": "[2]; COTI-2 50.0 mg/kg IV, Day 22", "value": 18.43, "unit": "%"},
      {"measurement": "Deaths", "setting": "[2]; COTI-2 50.0 mg/kg IV", "value": 2},
      {"measurement": "Day 13 Mean tumor weight", "setting": "[3]; [7]", "value": "1,828.9 ± 265.8 mg"},
      {"measurement": "Maximum weight loss (%) (Day #)", "setting": "[3]; [7]", "value": "8.2% (Day 21)"},
      {"measurement": "CS (Complete Shrinkage)", "setting": "[3]; [7]", "value": 0},
      {"measurement": "Deaths", "setting": "[3]; [7]", "value": 0},
      {"measurement": "Mean days of Survival (Day ± SEM)", "setting": "[3]; [7]", "value": "16.7 ± 0.8", "unit": "days"},
      {"measurement": "Day 13 Mean tumor weight", "setting": "[3]; [8]", "value": "1,542.7 ± 217.2 mg"},
      {"measurement": "Day 13 TGI", "setting": "[3]; [8]", "value": 7.8, "unit": "%"},
      {"measurement": "Maximum weight loss (%) (Day #)", "setting": "[3]; [8]", "value": "5.4% (Day 21)"},
      {"measurement": "CS (Complete Shrinkage)", "setting": "[3]; [8]", "value": 0},
      {"measurement": "Deaths", "setting": "[3]; [8]", "value": 1},
      {"measurement": "Mean days of Survival (Day ± SEM)", "setting": "[3]; [8]", "value": "17.2 ± 0.7", "unit": "days"},
      {"measurement": "Mean days of Survival (Day ± SEM)", "setting": "[3]; COTI-2 […] IV 3X Weekly to end", "value": "15.8 ± 0.9", "unit": "days"},
      {"measurement": "toxicity observations", "setting": "[3]; mouse, in vivo, 50 mg/kg", "value": "lethargy and hypoactivity"},
      {"measurement": "tumor weights or survival compared to control", "setting": "[3]; single agent, IV three times weekly", "value": "did not show any statistical differences in tumor weights or survival"},
      {"measurement": "IC50", "setting": "A549", "value": 6.3, "unit": "µM"},
      {"measurement": "PKB/Akt phospho-Thr308 levels", "setting": "[4]; A549 cells", "value": "decreased"},
      {"measurement": "mTOR phospho-Ser2448 level", "setting": "[4]; SHP77 cells", "value": "reduced"},
      {"measurement": "Day 17 Mean tumor weight", "setting": "[5]; COTI-2 12.5 mg/kg IV", "value": "1,699.2 ± 241.4 mg"},
      {"measurement": "Day 17 TGI", "setting": "[5]; COTI-2 12.5 mg/kg IV", "value": 22.04, "unit": "%"},
      {"measurement": "Maximum weight loss (%) (Day #)", "setting": "[5]; COTI-2 12.5 mg/kg IV, Day 11", "value": "10.35% (Day 11)"},
      {"measurement": "Day 17 CS (Complete Tumor Shrinkage)", "setting": "[5]; COTI-2 12.5 mg/kg IV", "value": 0},
      {"measurement": "Day 17 Mean tumor weight", "setting": "[5]; COTI-2 50.0 mg/kg IV", "value": "1,622.8 ± 403.0 mg"},
      {"measurement": "Day 17 TGI", "setting": "[5]; COTI-2 50.0 mg/kg IV", "value": 25.76, "unit": "%"},
      {"measurement": "Maximum weight loss (%) (Day #)", "setting": "[5]; COTI-2 50.0 mg/kg IV, Day 8", "value": "8.65% (Day 8)"},
      {"measurement": "Day 17 CS (Complete Tumor Shrinkage)", "setting": "[5]; COTI-2 50.0 mg/kg IV", "value": 0},
      {"measurement": "Mean Parent Remaining", "setting": "[6]", "value": 1, "unit": "%"},
      {"measurement": "induction of death", "setting": "HL-60; 24 h", "value": "greater than 30%"},
      {"measurement": "induction of death", "setting": "HL-60; 48 h", "value": "greater than 70%"},
      {"measurement": "reduction of proliferation as a single agent", "setting": "SHP 77 cells; SHP 77, 31 nM", "value": 25, "unit": "%"},
      {"measurement": "reduction of proliferation as a single agent", "setting": "SHP 77 cells; SHP 77, 73 nM", "value": 25, "unit": "%"},
      {"measurement": "inhibition at 15 min, 10 µM", "setting": "CYP3A; human liver microsomes, pH 7.4, probe midazolam (10 µM)", "value": 7, "unit": "%"},
      {"measurement": "inhibition at 15 min, 10 µM", "setting": "CYP3A; liver microsomes, pH 7.4, probe midazolam", "value": "< 50", "unit": "%"}
    ]}
  ]
}
